Results as given in patent EP3334759B1, “LACTOFERRIN FRAGMENT FOR THE USE AS ANTIBACTERIAL AND ANTIVIRAL AGENT” (Farmagens Health Care Srl, priority 2015, dated 2019).
Peptide text beside a SMILES is read from it.

Key:
[1] = system: Vero cell line; format: cell-based, Cercopithecus aethiops
Description: MTT assay: cells of Vero cell line (ATCC CRL-1586™ kidney epithelial cells of Cercopithecus aethiops) were cultivated at the appropriate growth conditions as recommended by the supplier in 96-well plates at a concentration of 2 × 10^4 cells/well and treated with the peptides according to the invention at different concentrations diluted in growth medium (1, 5, 10, 20, 50, 100, 250 mM) for 3, 10 and 24 hours. Subsequently, the medium was aspirated and the cells incubated at 37 °C for 3 hours with 10 µl of MTT (bromide of 3-(4,5-dimethylthiazol-2-yl)-2,5-diphenyltetrazolium), a vital dye able to enter the mitochondria and be metabolized by succinate dehydrogenase complex to formazan salts, determining a violet coloration in those cells. Afterward, the supernatant was discharged and isopropanol (100 uL) was added to each well to dissolve the produced salts. The reaction was allowed to proceed by incubation at room temperature in tilting agitation for 20 minutes, then spectrophotometric reading was performed at 570nm to assess cell viability in terms of proliferative inhibition and cell growth.

[2] = system: Human red blood cells; format: cell-based
Description: Human red blood cells from healthy donors have been isolated and used to performed the hemolytic assay. The peptide fragments of lactoferrin of SEQ ID No. 1 and SEQ ID No. 2 at different concentrations (1, 5, 10, 20, 50, 100, 250 mM) were added to the suspension of erythrocytes to a final volume of 100 µl. Samples were incubated under stirring at 37 °C for 60 min. The hemoglobin release was monitored by measuring the absorbance (Abs) of the supernatant at 540 nm. As negative control, i.e. zero hemolysis (blank), red cells resuspended in PBS were used, whereas completely lysed erythrocytes were used as a positive control for 100% hemolysis. The percentage of hemolysis was calculated using the following equation: % Hemolysis = [(SampleAbs−negativecontrolAbs)/(positivecontrolAbs−negativecontrolAbs)] × 100. [formula]

## CC(C)C[C@H](NC(=O)[C@H](CCC(N)=O)NC(=O)[C@H](Cc1ccccc1)NC(=O)[C@H](CO)NC(=O)[C@H](CCCNC(=N)N)NC(=O)[C@H](CO)NC(=O)[C@H](CCCCN)NC(=O)[C@H](CC(N)=O)NC(=O)[C@H](CCCCN)NC(=O)CNC(=O)[C@H](Cc1ccccc1)NC(=O)[C@@H](N)CCCCN)C(=O)N[C@@H](Cc1ccccc1)C(=O)NCC(=O)N[C@@H](CO)C(=O)N1CCC[C@H]1C(=O)N1CCC[C@H]1C(=O)NCC(=O)N[C@@H](CCC(N)=O)C(=O)N[C@@H](CCCNC(=N)N)C(=O)N[C@@H](CC(=O)O)C(=O)N[C@@H](CC(C)C)C(=O)N[C@@H](CC(C)C)C(=O)N[C@@H](Cc1ccccc1)C(=O)N[C@@H](CCCCN)C(=O)N[C@@H](CC(=O)O)C(=O)O [SEQ ID No. 1] (H-KFGKNKSRSFQLFGSPPGQRDLLFKD-OH)
[1]
  toxicity, measured as a function of cellular integrity: ≤ 20%
[2]
  toxicity towards the erythrocytes (hemolysis): not toxic

## CC(C)C[C@H](NC(=O)CNC(=O)[C@H](CS)NC(=O)[C@H](CCCCN)NC(=O)CNC(=O)[C@H](C)NC(=O)[C@@H](NC(=O)[C@@H](N)Cc1ccc(O)cc1)[C@@H](C)O)C(=O)N[C@H](C(=O)N1CCC[C@H]1C(=O)N[C@H](C(=O)N[C@@H](CC(C)C)C(=O)N[C@@H](C)C(=O)N[C@@H](CCC(=O)O)C(=O)N[C@@H](CC(N)=O)C(=O)N[C@@H](CCCNC(=N)N)C(=O)N[C@@H](CCCCN)C(=O)N[C@H](C(=O)N[C@@H](CO)C(=O)N[C@@H](CCCCN)C(=O)N[C@@H](Cc1ccc(O)cc1)C(=O)N[C@@H](CO)C(=O)N[C@@H](CO)C(=O)N[C@@H](CC(C)C)C(=O)N[C@@H](CC(=O)O)C(=O)N[C@@H](CS)C(=O)N[C@H](C(=O)N[C@@H](CC(C)C)C(=O)N[C@@H](CCCNC(=N)N)C(=O)N1CCC[C@H]1C(=O)O)C(C)C)[C@@H](C)O)C(C)C)C(C)C [SEQ ID No. 2] (H-YTAGKCGLVPVLAENRKTSKYSSLDCVLRP-OH)
[1]
  toxicity, measured as a function of cellular integrity: ≤ 20%
[2]
  toxicity towards the erythrocytes (hemolysis): not toxic
